Measured values taken from ChEMBL document CHEMBL3400076, “Three-dimensional rational approach to the discovery of potent substituted cyclopropyl urea soluble epoxide hydrolase inhibitors” (Bioorg Med Chem Lett, 2015).

Tests used:
[1] = biological target: T1, Bifunctional epoxide hydrolase 2 (Rattus norvegicus, UniProt P80299); experiment: Inhibition of recombinant rat soluble epoxide hydrolase assessed as increase in fluorescence intensity by fluorescence plate reader
T1 sequence (P80299 whole entry): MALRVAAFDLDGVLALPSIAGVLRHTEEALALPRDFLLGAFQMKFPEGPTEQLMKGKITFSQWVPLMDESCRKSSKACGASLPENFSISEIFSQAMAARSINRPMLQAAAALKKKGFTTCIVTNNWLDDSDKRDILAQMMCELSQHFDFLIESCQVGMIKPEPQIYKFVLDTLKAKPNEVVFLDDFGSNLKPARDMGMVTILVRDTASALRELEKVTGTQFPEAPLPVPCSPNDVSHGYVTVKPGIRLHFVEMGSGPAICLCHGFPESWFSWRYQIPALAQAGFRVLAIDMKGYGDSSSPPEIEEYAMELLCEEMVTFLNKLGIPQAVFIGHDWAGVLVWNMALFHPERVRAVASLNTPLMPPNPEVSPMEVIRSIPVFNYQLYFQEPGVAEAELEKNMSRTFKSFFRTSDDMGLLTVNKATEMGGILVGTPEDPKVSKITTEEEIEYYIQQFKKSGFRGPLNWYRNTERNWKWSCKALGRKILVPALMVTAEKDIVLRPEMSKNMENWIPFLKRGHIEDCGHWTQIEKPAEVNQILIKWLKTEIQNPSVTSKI

[2] = biological target: T2, Bifunctional epoxide hydrolase 2 (Homo sapiens, UniProt P34913); experiment: Inhibition of recombinant human soluble epoxide hydrolase assessed as increase in fluorescence intensity by fluorescence plate reader
T2 sequence (P34913 whole entry): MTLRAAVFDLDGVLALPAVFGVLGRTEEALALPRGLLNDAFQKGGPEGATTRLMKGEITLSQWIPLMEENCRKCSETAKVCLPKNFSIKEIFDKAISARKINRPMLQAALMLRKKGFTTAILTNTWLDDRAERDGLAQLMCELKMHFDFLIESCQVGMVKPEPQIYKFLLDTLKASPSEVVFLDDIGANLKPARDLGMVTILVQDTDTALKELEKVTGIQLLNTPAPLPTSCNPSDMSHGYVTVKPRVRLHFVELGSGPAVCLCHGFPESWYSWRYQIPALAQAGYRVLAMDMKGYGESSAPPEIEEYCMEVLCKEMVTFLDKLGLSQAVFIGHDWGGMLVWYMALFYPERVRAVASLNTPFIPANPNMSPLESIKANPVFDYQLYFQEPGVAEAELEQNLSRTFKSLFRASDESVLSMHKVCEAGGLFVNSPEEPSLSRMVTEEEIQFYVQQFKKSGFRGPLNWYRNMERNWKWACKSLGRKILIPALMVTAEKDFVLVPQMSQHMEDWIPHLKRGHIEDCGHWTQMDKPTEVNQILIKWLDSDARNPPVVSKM

IC50 [1] [nM] | IC50 [2] [nM] | SMILES
3.2 | 2.1 | O=C(O)CCc1ccc(OC2CCN(C(=O)N[C@@H]3[C@@H](c4ccc(F)cc4)[C@H]3c3ccc(F)cc3)CC2)cc1
3.9 | 2.3 | O=C(O)CCc1ccc(OC2CCN(C(=O)N[C@@H]3[C@@H](c4ccccc4)[C@H]3c3ccccc3)CC2)cc1
> 100 | > 100 | CC1(C)[C@H](NC(=O)N2CCC(Oc3ccc(CCC(=O)O)cc3)CC2)[C@H]1c1ccccc1 (racemic)
0.2 | 1.8 | O=C(N[C@@H]1[C@@H](c2ccccc2)[C@H]1c1ccccc1)N1CCCCC1

Continued, compound first:

SMILES | IC50 [1] [nM] | IC50 [2] [nM]
CS(=O)(=O)N[C@@H]1CCCN(C(=O)N[C@@H]2[C@@H](c3ccccc3)[C@H]2c2ccccc2)C1 (mixture of isomers) | 0.8 | 1.4
C[C@H]1[C@H](NC(=O)N2CCC(Oc3ccc(CCC(=O)O)cc3)CC2)[C@H]1c1ccccc1 (racemic) | 11.7 | 12
O=C(O)CCc1ccc(OC2CCN(C(=O)N[C@H]3C[C@@H]3c3ccccc3)CC2)cc1 (racemic) | 55.6 | 19.1
CN1CCN(C(=O)N[C@@H]2[C@@H](c3ccccc3)[C@H]2c2ccccc2)CC1 | 27.7 | 14.4
C[C@@H]1[C@H](NC(=O)N2CCC(Oc3ccc(CCC(=O)O)cc3)CC2)[C@H]1c1ccccc1 (racemic) | > 100 | 75.7
O=C(N[C@@H]1[C@@H](c2ccccc2)[C@H]1c1ccccc1)N1CCC[C@@H](NS(=O)(=O)c2ccc(F)cc2)C1 (mixture of isomers) | 0.2 | 0.7
